The values that follow come from ChEMBL document CHEMBL1155809, “Design, synthesis, and antihepatocellular carcinoma activity of nitric oxide releasing derivatives of oleanolic acid” (J Med Chem, 2008).

Data set [1] has as its system MCF7. The experiment in a line: Cytotoxicity against human MCF7 cells assessed as cell death by lactate dehydrogenase release assay. It counts as functional, cell-based.
The subject of data set [2] is HEK293. The experiment in a line: Cytotoxicity against HEK293 cells assessed as cell death by lactate dehydrogenase release assay. Format: functional, cell-based. The settings on record: Homo sapiens.
The subject of a further data set is Hep 3B2. The experiment in a line: Cytotoxicity against human Hep3B cells assessed as levels of nitric oxide production at 100 uM after 30 to 300 mins by colorimetric assay. Format: functional, cell-based.
Data set [3] concerns HeLa. As to the kind of experiment: Cytotoxicity against human HeLa cells assessed as levels of nitric oxide production at 100 uM after 30 to 300 mins by colorimetric assay. Format: functional, cell-based.
The subject of data set [4] is PC-3. As to the kind of experiment: Cytotoxicity against human PC3 cells assessed as levels of nitric oxide production at 100 uM after 30 to 300 mins by colorimetric assay. Format: functional, cell-based.
Data set [5] deals with MCF7. As to the kind of experiment: Cytotoxicity against human MCF7 cells assessed as levels of nitric oxide production at 100 uM after 30 to 300 mins by colorimetric assay. It counts as functional, cell-based.
In data set [6] the test system is HEK293. The experiment in a line: Cytotoxicity against human HEK293 cells assessed as levels of nitric oxide production at 100 uM after 30 to 300 mins by colorimetric assay. It counts as functional, cell-based.
Another data set relates to Mus musculus. The experiment in a line: Toxicity in BALB/c mouse at 15 to 100 mg/kg, ip daily for 3 days assessed after 15 days. It counts as organism-based. The arrangement: dose 15-100 mg/kg, route intraperitoneal. The settings on record: in vivo, 360 h.
A short description of data set [7]: Antitumor activity against human Hep3B cells xenografted in non-obese diabetic SCID mouse assessed as reduction in tumor size at 15 mg/kg, ip after 35 days. Format: functional, Hep 3B2. The settings on record: route intraperitoneal. In general terms: Xenograft models place foreign cells or tissue in a host animal.
Data set [8] is described as follows: Antitumor activity against human Hep3B cells xenografted in non-obese diabetic SCID mouse assessed as reduction in tumor weight at 15 mg/kg, ip after 35 days. It counts as functional, Hep 3B2. As to conditions: route intraperitoneal.
Data set [9] has as its system HepG2. The experiment in a line: Cytotoxicity against human HepG2 cells assessed as levels of nitric oxide production at 100 uM after 30 to 300 mins by colorimetric assay. It counts as functional, cell-based.
The subject of data set [10] is HepG2. The experiment in a line: Cytotoxicity against human HepG2 cells assessed as cell death at 1 uM after 24 hrs by lactate dehydrogenase release assay. It counts as functional.
For data set [11], the system named is HepG2. As to the kind of experiment: Cytotoxicity against human HepG2 cells assessed as cell death at 0.1 uM after 24 hrs by lactate dehydrogenase release assay. Format: functional.
Data set [12] concerns HepG2. As to the kind of experiment: Cytotoxicity against human HepG2 cells assessed as cell death at 0.01 uM after 24 hrs by lactate dehydrogenase release assay. Format: functional.
Data set [13] deals with HepG2. The experiment in a line: Cytotoxicity against human HepG2 cells assessed as cell death at 0.001 uM after 24 hrs by lactate dehydrogenase release assay. It counts as functional.
Data set [14] in a line: Cytotoxicity against human Hep3B cells assessed as cell death at 1 uM after 24 hrs by lactate dehydrogenase release assay. Format: functional, Hep 3B2.
Data set [15] can be described thus: Cytotoxicity against human Hep3B cells assessed as cell death at 0.1 uM after 24 hrs by lactate dehydrogenase release assay. Format: functional, Hep 3B2.
A short description of data set [16]: Cytotoxicity against human Hep3B cells assessed as cell death at 0.01 uM after 24 hrs by lactate dehydrogenase release assay. It counts as functional, Hep 3B2.
Data set [17] can be described thus: Cytotoxicity against human Hep3B cells assessed as cell death at 0.001 uM after 24 hrs by lactate dehydrogenase release assay. Format: functional, Hep 3B2.
The subject of data set [18] is HeLa. The experiment in a line: Cytotoxicity against human HeLa cells assessed as cell death by lactate dehydrogenase release assay. It counts as functional, cell-based.
Data set [19] deals with PC-3. The experiment in a line: Cytotoxicity against human PC3 cells assessed as cell death by lactate dehydrogenase release assay. It counts as functional, cell-based.

The structures appear in SMILES notation. The source made the active and inactive calls. The rule behind the calls is not given here.

With `CC(CCOc1no[n+]([O-])c1S(=O)(=O)c1ccccc1)OC(=O)CCC(=O)O[C@H]1CC[C@]2(C)[C@H]3CC=C4[C@@H]5CC(C)(C)CC[C@]5(C(=O)O)CC[C@@]4(C)[C@]3(C)CC[C@H]2C1(C)C` (stereo partly specified), the outcome in the data set on MCF7 [1], in the data set with HEK293 [2], in the data set on HeLa [3], with PC-3 [4], in the data set on MCF7 [5] and in the data set with HEK293 [6] was inactive. Besides, the result in the data set with HeLa [18] and in the data set with PC-3 [19] was inactive. Also, the outcome in the data set on Hep 3B2 and with HepG2 [9] was Active. Further, the Activity result with Mus musculus is “Non-toxic”; in [7], 232 mm3; in data set [8], 0.262 g; with HepG2 [10], 100%; in the data set on HepG2 [11], 93.5%; with HepG2 [12], 13.34%. Also, the Activity stood at 1.7% in the data set with HepG2 [13]; 100% in [14]; 92.4% in [15]; 14.23% in data set [16]; 4.7% in data set [17].
Consider `CC(CCOc1no[n+]([O-])c1S(=O)(=O)c1ccccc1)OC(=O)[C@]12CCC(C)(C)C[C@H]1C1=CC[C@@H]3[C@@]4(C)CC[C@H](O)C(C)(C)[C@@H]4CC[C@@]3(C)[C@]1(C)CC2` (stereo partly specified), for which the result in the data set with MCF7 [1], in the data set with HEK293 [2], in the data set on HeLa [3], in the data set on PC-3 [4], with MCF7 [5] and with HEK293 [6] was inactive. The outcome in the data set on HeLa [18] and with PC-3 [19] was inactive. The result with Hep 3B2 and in the data set with HepG2 [9] was Active. In addition, the Activity result is listed as “Non-toxic” in the data set with Mus musculus; 289 mm3 in data set [7]; 0.332 g in data set [8]; 89.21% in the data set on HepG2 [10]; 55.11% in the data set with HepG2 [11]; 6.67% with HepG2 [12]. Besides, the Activity in the data set on HepG2 [13] is reported as 0%; in data set [14], 92.18%; in data set [15], 63.51%; in [16] it was 11.05%; in [17], 0%.
Regarding `CC1(C)CC[C@]2(C(=O)O)CC[C@]3(C)C(=CC[C@@H]4[C@@]5(C)CC[C@H](O)C(C)(C)[C@@H]5CC[C@]43C)[C@@H]2C1` [OLEANOLIC_ACID], the result in the data set on MCF7 [1], in the data set with HEK293 [2], with HeLa [3], in the data set with PC-3 [4], in the data set on MCF7 [5] and in the data set on HEK293 [6] was inactive. In addition, the outcome in the data set on HeLa [18] and in the data set on PC-3 [19] was inactive. Also, the outcome with Hep 3B2 and in the data set on HepG2 [9] was Active. Besides, the Activity entry was “Non-toxic” with Mus musculus; 668 mm3 in data set [7]; 0.961 g in data set [8]; 0% in the data set with HepG2 [10]; 0% with HepG2 [11]; 0% in the data set with HepG2 [12]. The Activity (in the data set on HepG2 [13]; in data set [14]; in [15]; in data set [16]; in [17]) was 0% each time.
For `CC(CCOc1no[n+]([O-])c1S(=O)(=O)c1ccccc1)OC(=O)[C@]12CCC(C)(C)C[C@H]1C1=CC[C@@H]3[C@@]4(C)CC[C@H](OC(=O)C(F)(F)F)C(C)(C)[C@@H]4CC[C@@]3(C)[C@]1(C)CC2` (stereo partly specified), the outcome with MCF7 [1], with HEK293 [2], with HeLa [3], in the data set with PC-3 [4], in the data set on MCF7 [5] and in the data set with HEK293 [6] was inactive. In addition, the outcome in the data set with HeLa [18] and with PC-3 [19] was inactive. The outcome with Hep 3B2 and in the data set on HepG2 [9] was Active. For the same compound, the Activity (in the data set on HepG2 [10]; in the data set with HepG2 [11]; with HepG2 [12]; in the data set with HepG2 [13]; in data set [14]; in data set [15]) was 0% in each case. Further, the Activity in data set [16] and in data set [17] was 0% throughout.
